Laboratory results published in ChEMBL document CHEMBL4699655, “Optimization of the In Vivo Potency of Pyrazolopyrimidine MALT1 Protease Inhibitors by Reducing Metabolism and Increasing Potency in Whole Blood” (J Med Chem, 2020).
≈ marks a conversion by molar mass, not a printed value. Calls of active or inactive are those of the source. The calls are words filed in the database; no cut-off is given here.

Legend:
[1] = Intrinsic clearance in human liver microsomes; format: ADME, Microsome; conditions: read-out: CLH
[2] = Intrinsic clearance in rat liver microsomes; format: ADME, Microsome; conditions: read-out: CLH
[3] = Intrinsic clearance in mouse liver microsomes; format: ADME, Microsome; conditions: read-out: CLH
[4] = Lipophilicity, logP of the compound; conditions: octanol/water
[5] = Protein binding in human plasma; format: ADME, cell-free; conditions: read-out: PPB (converted)
[6] = Protein binding in rat plasma; format: ADME, cell-free; conditions: read-out: PPB (converted)
[7] = Apparent permeability from apical to basolateral side in human Caco-2 cells
Cytochrome P450 3A4 = Cytochrome P450 3A4 (Homo sapiens, UniProt P08684); assay: Inhibition of CYP3A4 (unknown origin)
Cytochrome P450 2C9 = Cytochrome P450 2C9 (Homo sapiens, UniProt P11712); assay: Inhibition of CYP2C9 (unknown origin)
Cytochrome P450 2D6 = Cytochrome P450 2D6 (Homo sapiens, UniProt P10635); assay: Inhibition of CYP2D6 (unknown origin)
[8] = Thermodynamic solubility of the compound
[9] = Oral bioavailability in Balb/C mouse at 3 mg/kg; format: ADME, organism-based; conditions: in vivo
[10] = Clearance in Sprague-Dawley rat at 1 mg/kg, iv; format: ADME, organism-based; conditions: in vivo
[11] = Clearance in Balb/C mouse at 1 mg/kg, iv; format: ADME, organism-based; conditions: in vivo
[12] = Terminal half life in Sprague-Dawley rat at 1 mg/kg, iv; format: ADME, organism-based; conditions: in vivo, read-out: beta t1/2 (converted)
[13] = Terminal half life in Balb/C mouse at 1 mg/kg, iv; format: ADME, organism-based; conditions: in vivo, read-out: beta t1/2 (converted)
[14] = Apparent volume of distribution at steady state in Sprague-Dawley rat at 1 mg/kg, iv; format: ADME, organism-based; conditions: in vivo, read-out: Vdss(app)
[15] = Apparent volume of distribution at steady state in Balb/C mouse at 1 mg/kg, iv; format: ADME, organism-based; conditions: in vivo, read-out: Vdss(app)
[16] = AUC (0 to 24 hrs) in Sprague-Dawley rat at 3 mg/kg, po; format: ADME, organism-based; design: time < 24 hr, route oral, dose 3 mg/kg; conditions: in vivo
[17] = AUC (0 to 24 hrs) in Balb/C mouse at 3 mg/kg, po; format: ADME, organism-based; design: time < 24 hr, route oral, dose 3 mg/kg; conditions: in vivo
[18] = Cmax in Sprague-Dawley rat at 3 mg/kg, po; format: ADME, organism-based; design: route oral, dose 3 mg/kg; conditions: in vivo
[19] = Cmax in Balb/C mouse at 3 mg/kg, po; format: ADME, organism-based; design: route oral, dose 3 mg/kg; conditions: in vivo
[20] = Oral bioavailability in Sprague-Dawley rat at 3 mg/kg; format: ADME, organism-based; conditions: in vivo
OCI-Ly3 [21] = assay: Growth inhibition of human OCILY3 cells grown in soft agar at 19.5 to 10000 nM; format: functional, cell-based; conditions: dose nM 19.5-10000
BJAB [22] = assay: Growth inhibition of human BJAB cells grown in soft agar at 19.5 to 10000 nM; format: functional, cell-based; conditions: dose nM 19.5-10000
OCI-Ly3 [23] = assay: Growth inhibition of human OCILY3 cells grown in soft agar
BJAB [24] = assay: Growth inhibition of human BJAB cells grown in soft agar
OCI-Ly3 [25] = assay: Inhibition of ROS production in human OCILY3 cells
Caspase-3 = molecular target: T1, Caspase-3 (Homo sapiens, UniProt P42574); assay: Inhibition of caspase-3 (unknown origin)
T1 sequence (P42574 whole entry): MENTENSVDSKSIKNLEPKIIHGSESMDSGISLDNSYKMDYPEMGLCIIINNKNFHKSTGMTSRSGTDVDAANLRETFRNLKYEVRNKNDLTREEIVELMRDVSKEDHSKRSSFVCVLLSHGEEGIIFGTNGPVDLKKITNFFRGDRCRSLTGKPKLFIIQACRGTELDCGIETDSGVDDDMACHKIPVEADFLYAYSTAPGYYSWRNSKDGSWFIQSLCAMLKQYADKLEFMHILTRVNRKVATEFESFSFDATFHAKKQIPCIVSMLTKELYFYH

Cathepsin B = Cathepsin B (Homo sapiens, UniProt P07858); assay: Inhibition of cathepsin B (unknown origin)
Dipeptidyl peptidase 1 = Dipeptidyl peptidase 1 (Homo sapiens, UniProt P53634); assay: Inhibition of cathepsin C (unknown origin)
Cathepsin K = molecular target: T2, Cathepsin K (Homo sapiens, UniProt P43235); assay: Inhibition of cathepsin K (unknown origin)
T2 sequence (P43235 whole entry): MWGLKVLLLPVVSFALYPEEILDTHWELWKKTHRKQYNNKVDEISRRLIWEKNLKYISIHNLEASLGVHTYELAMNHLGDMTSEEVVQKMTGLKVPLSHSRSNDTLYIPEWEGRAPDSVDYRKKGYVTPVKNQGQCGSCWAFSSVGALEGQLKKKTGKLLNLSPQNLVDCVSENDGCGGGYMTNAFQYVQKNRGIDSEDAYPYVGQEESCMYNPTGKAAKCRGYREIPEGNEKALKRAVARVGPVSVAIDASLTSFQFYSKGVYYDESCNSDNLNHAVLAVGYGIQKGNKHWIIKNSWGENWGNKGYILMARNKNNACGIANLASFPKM

Procathepsin L = Procathepsin L (Homo sapiens, UniProt P07711); assay: Inhibition of cathepsin L (unknown origin)
Cathepsin S = Cathepsin S (Homo sapiens, UniProt P25774); assay: Inhibition of cathepsin S (unknown origin)
[26] = molecular target: Voltage-gated inwardly rectifying potassium channel KCNH2 (Homo sapiens, UniProt Q12809); assay: Inhibition of human ERG by dofetilide binding assay
Rattus norvegicus [27] = assay: Anti-autoimmune disease activity in OFA rat model of T-cell dependent B cell response assessed as reduction in SRBC-induced IgM producing B cells at 0.3 mg/kg, po QD for 4 days starting 2 days prior to immunization by ex vivo plaque forming assay relative to control; format: functional; conditions: 96 h, read-out: INH, time 4 day
Rattus norvegicus [28] = assay: Anti-autoimmune disease activity in OFA rat model of T-cell dependent B cell response assessed as reduction in SRBC-induced IgM producing B cells at 3 mg/kg, po QD for 4 days starting 2 days prior to immunization by ex vivo plaque forming assay relative to control; format: functional; conditions: 96 h, read-out: INH, time 4 day
Rattus norvegicus [29] = assay: Anti-autoimmune disease activity in OFA rat model of T-cell dependent B cell response assessed as reduction in SRBC-induced IgM producing B cells dosed orally once daily for 4 days starting 2 days prior to immunization by ex vivo plaque forming assay relative to control; format: functional
[30] = Cmax in blood of OFA rat model of T-cell dependent B cell response at 0.3 mg/kg, po QD for 4 days starting 2 days prior to immunization and measured after 3 hrs; format: ADME, organism-based; design: route oral, time 4 day, dose 0.3 mg/kg
[31] = Cmax in blood of OFA rat model of T-cell dependent B cell response at 0.3 mg/kg, po QD for 4 days starting 2 days prior to immunization and measured after 24 hrs; format: ADME, organism-based; design: route oral, dose 0.3 mg/kg, time 5 day
[32] = Cmax in blood of OFA rat model of T-cell dependent B cell response at 1 mg/kg, po QD for 4 days starting 2 days prior to immunization and measured after 3 hrs; format: ADME, organism-based; design: route oral, dose 1 mg/kg, time 4 day
[33] = Cmax in blood of OFA rat model of T-cell dependent B cell response at 1 mg/kg, po QD for 4 days starting 2 days prior to immunization and measured after 24 hrs; format: ADME, organism-based; design: route oral, dose 1 mg/kg, time 5 day
[34] = Cmax in blood of OFA rat model of T-cell dependent B cell response at 3 mg/kg, po QD for 4 days starting 2 days prior to immunization and measured after 3 hrs; format: ADME, organism-based; design: route oral, dose 3 mg/kg, time 4 day
[35] = Cmax in blood of OFA rat model of T-cell dependent B cell response at 3 mg/kg, po QD for 4 days starting 2 days prior to immunization and measured after 24 hrs; format: ADME, organism-based; design: route oral, dose 3 mg/kg, time 5 day
TMD8 = assay: Inhibition of IL-10 production in tumor of CD79B-mutant containing human TMD8 cells xenografted in SCID-bg mouse at 30 mg/kg, po administered as single dose; format: functional, organism-based
OCI-Ly3 [36] = assay: Antitumor activity against human OCILY3 cells xenografted in SCID-bg mouse assessed as inhibition of tumor growth by measuring T/C ratio at 30 mg/kg, po QD for 49 days; format: functional; conditions: time 49 day
OCI-Ly3 [37] = assay: Antitumor activity against human OCILY3 cells xenografted in SCID-bg mouse assessed as tumor regression level at 30 mg/kg, po BID for 49 days; format: functional; conditions: time 49 day
OCI-Ly3 [38] = assay: Antitumor activity against human OCILY3 cells xenografted in SCID-bg mouse assessed as inhibition of tumor growth by measuring T/C ratio at 30 mg/kg, po QD for 53 days; format: functional, organism-based; conditions: time 53.0 day
OCI-Ly3 [39] = assay: Antitumor activity against human OCILY3 cells xenografted in SCID-bg mouse assessed as tumor regression level at 30 mg/kg, po BID for 53 days; format: functional; conditions: time 53 day
[40] = Toxicity in SCID-bg mouse xenografted with human OCILY3 cells assessed as effect on body weight at 30 mg/kg, po QD for 49 days; format: organism-based; conditions: in vivo, 1176 h, time 49 day
[41] = Toxicity in SCID-bg mouse xenografted with human OCILY3 cells assessed as effect on body weight at 30 mg/kg, po BID for 49 days; format: organism-based; conditions: in vivo, 1176 h, time 49 day

Cytochrome P450 2D6, sequence (P10635 whole entry): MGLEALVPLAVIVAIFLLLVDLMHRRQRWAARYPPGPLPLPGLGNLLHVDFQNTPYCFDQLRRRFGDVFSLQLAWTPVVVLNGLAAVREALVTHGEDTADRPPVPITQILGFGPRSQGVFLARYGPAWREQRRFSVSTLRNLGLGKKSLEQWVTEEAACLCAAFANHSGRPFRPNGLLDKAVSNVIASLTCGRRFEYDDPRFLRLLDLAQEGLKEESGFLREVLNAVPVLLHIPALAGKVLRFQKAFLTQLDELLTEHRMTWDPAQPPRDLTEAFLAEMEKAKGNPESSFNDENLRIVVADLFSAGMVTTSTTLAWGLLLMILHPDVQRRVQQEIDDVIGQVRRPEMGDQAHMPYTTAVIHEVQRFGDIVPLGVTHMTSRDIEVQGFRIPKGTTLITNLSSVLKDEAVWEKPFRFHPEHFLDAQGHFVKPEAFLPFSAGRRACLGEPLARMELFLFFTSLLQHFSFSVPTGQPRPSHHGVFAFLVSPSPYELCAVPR
Voltage-gated inwardly rectifying potassium channel KCNH2, sequence (Q12809 whole entry): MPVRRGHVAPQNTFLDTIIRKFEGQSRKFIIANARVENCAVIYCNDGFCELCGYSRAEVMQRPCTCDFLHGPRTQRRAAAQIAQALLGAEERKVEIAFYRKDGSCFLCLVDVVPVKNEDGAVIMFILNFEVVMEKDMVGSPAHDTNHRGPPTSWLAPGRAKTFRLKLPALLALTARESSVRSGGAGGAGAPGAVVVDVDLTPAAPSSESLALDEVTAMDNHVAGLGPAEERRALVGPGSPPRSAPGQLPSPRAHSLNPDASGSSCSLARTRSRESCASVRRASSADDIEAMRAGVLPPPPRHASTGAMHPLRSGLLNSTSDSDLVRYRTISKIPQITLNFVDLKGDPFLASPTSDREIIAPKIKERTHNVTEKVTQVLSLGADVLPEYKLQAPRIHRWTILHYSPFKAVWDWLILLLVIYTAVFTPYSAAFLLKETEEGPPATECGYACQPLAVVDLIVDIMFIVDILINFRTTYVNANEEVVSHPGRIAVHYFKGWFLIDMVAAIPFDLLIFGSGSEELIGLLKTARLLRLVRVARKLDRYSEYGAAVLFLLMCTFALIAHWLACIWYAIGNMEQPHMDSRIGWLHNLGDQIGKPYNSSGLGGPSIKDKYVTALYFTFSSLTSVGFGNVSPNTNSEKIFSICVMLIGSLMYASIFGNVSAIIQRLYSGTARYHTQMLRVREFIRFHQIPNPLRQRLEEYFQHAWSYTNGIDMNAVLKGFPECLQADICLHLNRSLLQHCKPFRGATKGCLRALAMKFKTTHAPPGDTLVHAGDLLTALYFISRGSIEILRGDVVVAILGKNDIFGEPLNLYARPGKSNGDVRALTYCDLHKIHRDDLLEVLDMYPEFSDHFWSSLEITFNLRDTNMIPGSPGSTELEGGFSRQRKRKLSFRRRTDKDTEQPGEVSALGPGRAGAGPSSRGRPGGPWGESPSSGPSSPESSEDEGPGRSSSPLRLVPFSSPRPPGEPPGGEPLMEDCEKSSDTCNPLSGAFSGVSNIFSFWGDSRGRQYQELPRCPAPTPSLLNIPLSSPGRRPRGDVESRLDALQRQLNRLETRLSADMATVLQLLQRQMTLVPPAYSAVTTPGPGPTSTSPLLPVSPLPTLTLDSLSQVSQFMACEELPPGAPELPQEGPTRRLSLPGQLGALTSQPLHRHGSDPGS
Cytochrome P450 3A4, sequence (P08684 whole entry): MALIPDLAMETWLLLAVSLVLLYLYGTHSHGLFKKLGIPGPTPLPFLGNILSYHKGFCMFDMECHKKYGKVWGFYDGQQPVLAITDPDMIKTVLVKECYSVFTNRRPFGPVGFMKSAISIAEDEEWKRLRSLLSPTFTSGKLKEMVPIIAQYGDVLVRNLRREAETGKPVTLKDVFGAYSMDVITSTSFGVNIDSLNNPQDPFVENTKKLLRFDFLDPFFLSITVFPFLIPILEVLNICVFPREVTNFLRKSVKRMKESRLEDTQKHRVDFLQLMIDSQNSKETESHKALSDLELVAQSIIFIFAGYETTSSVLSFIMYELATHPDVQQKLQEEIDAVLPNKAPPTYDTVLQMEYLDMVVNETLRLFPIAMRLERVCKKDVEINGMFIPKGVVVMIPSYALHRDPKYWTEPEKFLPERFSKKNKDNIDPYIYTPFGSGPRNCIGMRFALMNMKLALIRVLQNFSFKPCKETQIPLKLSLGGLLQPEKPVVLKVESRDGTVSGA
Dipeptidyl peptidase 1, sequence (P53634 25-134 limits assumed): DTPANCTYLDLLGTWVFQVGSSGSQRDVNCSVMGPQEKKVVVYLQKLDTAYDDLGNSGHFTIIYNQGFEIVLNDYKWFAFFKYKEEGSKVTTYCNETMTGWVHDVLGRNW
Dipeptidyl peptidase 1, sequence (P53634 231-394 limits assumed): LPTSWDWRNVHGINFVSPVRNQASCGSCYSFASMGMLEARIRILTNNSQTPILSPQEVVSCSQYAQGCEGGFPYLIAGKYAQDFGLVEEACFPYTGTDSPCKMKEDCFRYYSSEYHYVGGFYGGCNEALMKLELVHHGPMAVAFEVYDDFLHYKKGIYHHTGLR
Dipeptidyl peptidase 1, sequence (P53634 395-463 limits assumed): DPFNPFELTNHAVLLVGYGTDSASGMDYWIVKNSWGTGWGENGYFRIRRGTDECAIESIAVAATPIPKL
Cytochrome P450 2C9, sequence (P11712 whole entry): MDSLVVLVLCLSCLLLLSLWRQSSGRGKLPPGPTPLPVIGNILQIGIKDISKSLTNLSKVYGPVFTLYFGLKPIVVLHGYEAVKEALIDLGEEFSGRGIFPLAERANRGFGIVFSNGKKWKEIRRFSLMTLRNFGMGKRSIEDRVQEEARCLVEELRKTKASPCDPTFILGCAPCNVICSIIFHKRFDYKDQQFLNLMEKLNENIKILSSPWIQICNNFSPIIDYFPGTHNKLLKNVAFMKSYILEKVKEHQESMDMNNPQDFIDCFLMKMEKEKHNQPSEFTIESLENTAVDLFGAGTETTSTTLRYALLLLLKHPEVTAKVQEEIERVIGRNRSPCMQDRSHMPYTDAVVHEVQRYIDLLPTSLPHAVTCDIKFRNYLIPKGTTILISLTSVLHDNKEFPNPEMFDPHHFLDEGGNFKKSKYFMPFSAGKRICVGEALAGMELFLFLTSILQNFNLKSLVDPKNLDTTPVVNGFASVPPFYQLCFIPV
Cathepsin S, sequence (P25774 whole entry): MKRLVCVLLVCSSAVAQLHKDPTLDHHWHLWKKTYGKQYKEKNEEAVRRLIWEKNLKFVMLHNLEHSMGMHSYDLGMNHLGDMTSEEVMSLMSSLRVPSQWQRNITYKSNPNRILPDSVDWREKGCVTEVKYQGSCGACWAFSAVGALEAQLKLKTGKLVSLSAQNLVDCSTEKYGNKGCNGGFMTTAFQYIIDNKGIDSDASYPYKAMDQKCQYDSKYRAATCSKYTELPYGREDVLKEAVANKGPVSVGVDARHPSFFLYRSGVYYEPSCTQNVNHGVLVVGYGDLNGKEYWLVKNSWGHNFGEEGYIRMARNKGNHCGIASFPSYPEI
Procathepsin L, sequence (P07711 whole entry): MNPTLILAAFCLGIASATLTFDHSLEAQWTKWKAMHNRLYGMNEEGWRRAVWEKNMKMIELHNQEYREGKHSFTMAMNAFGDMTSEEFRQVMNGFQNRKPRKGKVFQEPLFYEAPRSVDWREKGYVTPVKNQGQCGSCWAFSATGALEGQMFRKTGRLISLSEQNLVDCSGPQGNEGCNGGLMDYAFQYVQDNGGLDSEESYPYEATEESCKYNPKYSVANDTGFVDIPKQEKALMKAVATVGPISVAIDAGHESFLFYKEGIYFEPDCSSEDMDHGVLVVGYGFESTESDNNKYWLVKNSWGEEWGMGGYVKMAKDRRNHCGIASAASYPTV

- microsomal CLint [1]: < 25 µL/min/mg
- microsomal CLint [2]: < 25 µL/min/mg
- microsomal CLint [3]: < 25 µL/min/mg
- logP [4]: 3.4
- fraction unbound [5]: 0.017
- fraction unbound [6]: 0.03
- Papp A→B [7]: 12.8 ×10⁻⁶ cm/s
- IC50 (Cytochrome P450 3A4): > 20 µM
- IC50 (Cytochrome P450 2C9): > 20 µM
- IC50 (Cytochrome P450 2D6): > 20 µM
- solubility thermodynamic [8]: 4 µg/mL (≈ 8.92 µM)
- bioavailability [9]: 83%
- clearance [10]: 7 mL/min/kg
- clearance [11]: 5 mL/min/kg
- half-life [12]: 8.5 h
- half-life [13]: 3.7 h
- Vd [14]: 4.2 L/kg
- Vd [15]: 1.4 L/kg
- AUC [16]: 13.2 µM·h
- AUC [17]: 20.1 µM·h
- Cmax [18]: 700 nM
- Cmax [19]: 1700 nM
- bioavailability [20]: 79%
- IC50 (OCI-Ly3 [23]): 0.24 µM
- IC50 (OCI-Ly3 [25]): 0.03 µM
- IC50 (Caspase-3): > 100 µM
- IC50 (Cathepsin B): > 100 µM
- IC50 (Dipeptidyl peptidase 1): > 100 µM
- IC50 (Cathepsin K): > 100 µM
- IC50 (Procathepsin L): > 100 µM
- IC50 (Cathepsin S): > 100 µM
- Cmax [30]: 130 nM
- Cmax [31]: 50 nM
- Cmax [32]: 670 nM
- Cmax [33]: 260 nM
- Cmax [34]: 2300 nM
- Cmax [35]: 1000 nM
Compound: CO[C@@H](C)c1c(NC(=O)Nc2cnc(-n3nccn3)c(Cl)c2)cnc2cc(Cl)nn12
- growth inhibition (GI) (OCI-Ly3 [21]): Dose-dependent effect
- growth inhibition (GI) (BJAB [22]): inactive
- IC50 (BJAB [24]): > 10 µM
- IC50 [26]: > 30 µM
- inhibition in vivo at 0.3 mg/kg (Rattus norvegicus [27]): 58%
- inhibition in vivo at 3 mg/kg (Rattus norvegicus [28]): 97%
- ED50 (Rattus norvegicus [29]; po, 96 h, time 4 day): 0.3 mg/kg
- Activity (Rattus norvegicus [29]; time 4.0 day): Dose-dependent effect
- inhibition (TMD8): Active
- T/C (OCI-Ly3 [36]): 32%
- Activity (OCI-Ly3 [37]): -20%
- Activity (OCI-Ly3 [38]): Active
- Activity (OCI-Ly3 [39]): -50%
- Activity [40]: Non-Toxic
- Activity [41]: Non-Toxic
